Results as given in ChEMBL document CHEMBL1138695, “Synthesis of stavudine amino acid ester prodrugs with broad-spectrum chemotherapeutic properties for the effective treatment of HIV/AIDS” (Bioorg Med Chem Lett, 2004).
pEC50: −log10 of the molar value. Values after ≈ are worked out from the molar mass of the structure shown.

Experiments:
Salmonella enteritidis = assay: Antibacterial activity against Salmonella enteritidis; assay type: functional, Salmonella enterica subsp. enterica serovar Enteritidis; conditions: Salmonella enterica
Citrobacter freundii = assay: Antibacterial activity against Citrobacter ferundii; assay type: functional
Vibrio mimicus = assay: Antibacterial activity against Vibrio mimicus; assay type: functional
Salmonella typhi = assay: Antibacterial activity against […] Salmonella typhi; assay type: functional, Salmonella enterica subsp. enterica serovar Typhi; conditions: Salmonella enterica
Vibrio fluvialis = assay: Antibacterial activity against Vibrio fluvialis; assay type: functional
Priestia megaterium = assay: Antibacterial activity against Bacillus megatherium; assay type: functional
Vibrio parahaemolyticus = assay: Antibacterial activity against Vibrio parahaemolyticus; assay type: functional
Klebsiella pneumoniae [1] = assay: Antibacterial activity against Klebsiella ozaenae; assay type: functional; conditions: subsp. ozaenae
Salmonella paratyphi = assay: Antibacterial activity against Salmonella paratyphi A; assay type: functional, Salmonella enterica subsp. enterica serovar Paratyphi A; conditions: Salmonella enterica
Proteus vulgaris = assay: Antibacterial activity against Proteus vulgaris; assay type: functional
Enterobacter = assay: Antibacterial activity against Enterobacter; assay type: functional
Vibrio cholerae [2] = assay: Antibacterial activity against Vibrio cholerae 01; assay type: functional
Klebsiella pneumoniae [3] = assay: Antibacterial activity against Klebsiella pneumoniae; assay type: functional
Escherichia coli = assay: Antibacterial activity against Escherichia coli NCTC 10418; assay type: functional
Proteus mirabilis = assay: Antibacterial activity against Proteus mirabilis; assay type: functional
Shigella boydii = assay: Antibacterial activity against Shigella boydii; assay type: functional
Plesiomonas shigelloides = assay: Antibacterial activity against Plesiomonas shigelloides; assay type: functional
Staphylococcus aureus = assay: Antibacterial activity against Staphylococcus aureus; assay type: functional
Morganella morganii = assay: Antibacterial activity against Morganella morganii; assay type: functional
Vibrio cholerae [4] = assay: Antibacterial activity against Vibrio cholerae 0139; assay type: functional
Shigella sonnei = assay: Antibacterial activity against Shigella sonnei; assay type: functional
Salmonella typhimurium = assay: Antibacterial activity against Salmonella Typhimurium; assay type: functional, Salmonella enterica subsp. enterica serovar Typhimurium; conditions: Salmonella enterica
Edwardsiella tarda = assay: Antibacterial activity against Edwardsiella tarda; assay type: functional
Pseudomonas aeruginosa = assay: Antibacterial activity against Pseudomonas aeruginosa; assay type: functional
CCRF-CEM [5] = assay: Cytotoxic concentration of compound required to reduce the viability of mock infected CEM cells by 50%; assay type: functional; conditions: Homo sapiens
CCRF-CEM [6] = assay: Effective concentration of compound achieving 50% protection in CEM cell lines against the cytopathic effect of HIV-1; assay type: functional, cell-based; conditions: Homo sapiens
[7] = Selectivity index expressed as the ratio of CC50 to EC50; assay type: functional
[8] = In vitro hydrolysis in human plasma; assay type: ADME, cell-free
[9] = tested on: Mycobacterium tuberculosis; assay: Antimycobacterial activity against Mycobacterium tuberculosis strain H37Rv; assay type: functional; design: concentration or dose not given beside the values

Structure (SMILES)	MIC (Salmonella enteritidis) [µg/mL]	MIC (Citrobacter freundii) [µg/mL]	MIC (Vibrio mimicus) [µg/mL]	MIC (Vibrio fluvialis) [µg/mL]	MIC (Priestia megaterium) [µg/mL]	MIC (Vibrio parahaemolyticus) [µg/mL]	MIC (Klebsiella pneumoniae [1]) [µg/mL]	MIC (Proteus vulgaris) [µg/mL]	MIC (Enterobacter) [µg/mL]	MIC (Vibrio cholerae [2]) [µg/mL]	MIC (Klebsiella pneumoniae [3]) [µg/mL]	MIC (Escherichia coli) [µg/mL]	MIC (Proteus mirabilis) [µg/mL]	MIC (Shigella boydii) [µg/mL]	MIC (Plesiomonas shigelloides) [µg/mL]	MIC (Staphylococcus aureus) [µg/mL]	MIC (Morganella morganii) [µg/mL]	CC50 (CCRF-CEM [5]) [µM]	pEC50 (CCRF-CEM [6])	Selectivity index [7]	also measured
O=C(O)c1cn(C2CC2)c2cc(N3CCNCC3)c(F)cc2c1=O [CIPROFLOXACIN]	0.0095 (≈ 0.0287 µM)	0.0095 (≈ 0.0287 µM)	0.0095 (≈ 0.0287 µM)	0.0095 (≈ 0.0287 µM)	0.0095 (≈ 0.0287 µM)	0.0095 (≈ 0.0287 µM)	0.0381 (≈ 0.115 µM)	0.019 (≈ 0.0573 µM)	0.019 (≈ 0.0573 µM)	0.0095 (≈ 0.0287 µM)	0.0095 (≈ 0.0287 µM)	0.019 (≈ 0.0573 µM)	0.0095 (≈ 0.0287 µM)	0.0095 (≈ 0.0287 µM)	0.019 (≈ 0.0573 µM)	0.0095 (≈ 0.0287 µM)	0.0095 (≈ 0.0287 µM)				MIC (Salmonella typhi): 0.019 µg/mL (≈ 0.0573 µM); MIC (Salmonella paratyphi): 0.019 µg/mL (≈ 0.0573 µM); MIC (Vibrio cholerae [4]): 0.0095 µg/mL (≈ 0.0287 µM); MIC (Shigella sonnei): 0.0095 µg/mL (≈ 0.0287 µM); MIC (Salmonella typhimurium): 0.0095 µg/mL (≈ 0.0287 µM); MIC (Edwardsiella tarda): 0.0095 µg/mL (≈ 0.0287 µM); MIC (Pseudomonas aeruginosa): 0.0381 µg/mL (≈ 0.115 µM)
CCn1cc(C(=O)O)c(=O)c2cc(F)c(N3CCN(CC(=O)OCC4C=CC(n5cc(C)c(=O)[nH]c5=O)O4)CC3)cc21 (stereo unspecified)	9.76 (≈ 16.7 µM)	2.44 (≈ 4.18 µM)	0.61 (≈ 1.05 µM)	9.76 (≈ 16.7 µM)	0.3 (≈ 0.514 µM)	1.22 (≈ 2.09 µM)	1.22 (≈ 2.09 µM)	9.76 (≈ 16.7 µM)	0.3 (≈ 0.514 µM)	0.61 (≈ 1.05 µM)	1.22 (≈ 2.09 µM)	1.22 (≈ 2.09 µM)	1.22 (≈ 2.09 µM)	0.61 (≈ 1.05 µM)	9.76 (≈ 16.7 µM)	9.76 (≈ 16.7 µM)	9.76 (≈ 16.7 µM)	210	4.00	2.1	MIC (Salmonella paratyphi): 1.22 µg/mL (≈ 2.09 µM); half-life [8]: > 4 h; MIC (Vibrio cholerae [4]): 0.61 µg/mL (≈ 1.05 µM); MIC (Shigella sonnei): 9.76 µg/mL (≈ 16.7 µM); MIC (Salmonella typhimurium): 9.76 µg/mL (≈ 16.7 µM); MIC (Edwardsiella tarda): 9.76 µg/mL (≈ 16.7 µM); MIC (Pseudomonas aeruginosa): 1.22 µg/mL (≈ 2.09 µM); Inhibition [9]: 98%
Cc1cn([C@H]2C=C[C@@H](CO)O2)c(=O)[nH]c1=O [STAVUDINE]																		> 100	7.05	> 1110	Inhibition [9]: 0%
Cc1cn(C2C=CC(COC(=O)CN3CCN(c4cc5c(cc4F)c(=O)c(C(=O)O)cn5C4CC4)CC3)O2)c(=O)[nH]c1=O (stereo unspecified)	0.61 (≈ 1.02 µM)	0.61 (≈ 1.02 µM)	0.3 (≈ 0.504 µM)	0.61 (≈ 1.02 µM)	0.3 (≈ 0.504 µM)	0.3 (≈ 0.504 µM)	1.22 (≈ 2.05 µM)	4.88 (≈ 8.19 µM)	0.3 (≈ 0.504 µM)	0.3 (≈ 0.504 µM)	1.22 (≈ 2.05 µM)	0.3 (≈ 0.504 µM)	0.3 (≈ 0.504 µM)	0.61 (≈ 1.02 µM)	0.61 (≈ 1.02 µM)	4.88 (≈ 8.19 µM)	0.61 (≈ 1.02 µM)	695	4.21	11.2	half-life [8]: 4 h; MIC (Vibrio cholerae [4]): 0.61 µg/mL (≈ 1.02 µM); MIC (Shigella sonnei): 4.88 µg/mL (≈ 8.19 µM); MIC (Salmonella typhimurium): 0.3 µg/mL (≈ 0.504 µM); MIC (Edwardsiella tarda): 4.88 µg/mL (≈ 8.19 µM); MIC (Pseudomonas aeruginosa): 1.22 µg/mL (≈ 2.05 µM); Inhibition [9]: 100%
Cc1cn(C2C=CC(COC(=O)CNC(=O)c3ccncn3)O2)c(=O)[nH]c1=O (stereo unspecified)	1250 (≈ 3230 µM)	1250 (≈ 3230 µM)	78.1 (≈ 202 µM)	1250 (≈ 3230 µM)	39.1 (≈ 101 µM)	1250 (≈ 3230 µM)	1250 (≈ 3230 µM)	1250 (≈ 3230 µM)	39.1 (≈ 101 µM)	1250 (≈ 3230 µM)	1250 (≈ 3230 µM)	1250 (≈ 3230 µM)	1250 (≈ 3230 µM)	312 (≈ 807 µM)	312 (≈ 807 µM)	1250 (≈ 3230 µM)	312 (≈ 807 µM)	567	6.28	1090	half-life [8]: 1 h; MIC (Vibrio cholerae [4]): 1250 µg/mL (≈ 3230 µM); MIC (Shigella sonnei): 312 µg/mL (≈ 807 µM); MIC (Salmonella typhimurium): 1250 µg/mL (≈ 3230 µM); MIC (Edwardsiella tarda): 1250 µg/mL (≈ 3230 µM); MIC (Pseudomonas aeruginosa): 1250 µg/mL (≈ 3230 µM); Inhibition [9]: 0%
Cc1cn(C2C=CC(COC(=O)CNNC(=O)c3ccncc3)O2)c(=O)[nH]c1=O (stereo unspecified)	4.88 (≈ 12.2 µM)	1250 (≈ 3110 µM)	4.88 (≈ 12.2 µM)	1250 (≈ 3110 µM)	2.44 (≈ 6.08 µM)	1250 (≈ 3110 µM)	9.76 (≈ 24.3 µM)	312 (≈ 779 µM)	312 (≈ 779 µM)	1250 (≈ 3110 µM)	1250 (≈ 3110 µM)	156 (≈ 389 µM)	2.44 (≈ 6.08 µM)	4.88 (≈ 12.2 µM)	312 (≈ 779 µM)	156 (≈ 389 µM)	156 (≈ 389 µM)	> 200	6.40	> 497	MIC (Salmonella typhi): 156 µg/mL (≈ 389 µM); MIC (Salmonella paratyphi): 9.77 µg/mL (≈ 24.3 µM); half-life [8]: 1 h; MIC (Vibrio cholerae [4]): 156 µg/mL (≈ 389 µM); MIC (Shigella sonnei): 156 µg/mL (≈ 389 µM); MIC (Salmonella typhimurium): 1250 µg/mL (≈ 3110 µM); MIC (Edwardsiella tarda): 156 µg/mL (≈ 389 µM); MIC (Pseudomonas aeruginosa): 1250 µg/mL (≈ 3110 µM); Inhibition [9]: 90%
Cc1cn(C2C=CC(COC(=O)CN(C)C)O2)c(=O)[nH]c1=O (stereo unspecified)																		456	6.46	1330	half-life [8]: 0.5 h
CCn1cc(C(=O)O)c(=O)c2cc(F)c(N3CCNCC3)cc21 [NORFLOXACIN]	0.0381 (≈ 0.119 µM)	0.0381 (≈ 0.119 µM)	0.153 (≈ 0.478 µM)	0.0763 (≈ 0.239 µM)	0.0763 (≈ 0.239 µM)	0.0763 (≈ 0.239 µM)	0.0381 (≈ 0.119 µM)	0.0381 (≈ 0.119 µM)	0.0763 (≈ 0.239 µM)	0.0763 (≈ 0.239 µM)	0.0381 (≈ 0.119 µM)	0.0381 (≈ 0.119 µM)	0.0763 (≈ 0.239 µM)	0.0381 (≈ 0.119 µM)	0.0763 (≈ 0.239 µM)	0.153 (≈ 0.478 µM)	0.0763 (≈ 0.239 µM)				MIC (Salmonella typhi): 0.0763 µg/mL (≈ 0.239 µM); MIC (Salmonella paratyphi): 0.0381 µg/mL (≈ 0.119 µM); MIC (Vibrio cholerae [4]): 0.0763 µg/mL (≈ 0.239 µM); MIC (Shigella sonnei): 0.0381 µg/mL (≈ 0.119 µM); MIC (Salmonella typhimurium): 0.0763 µg/mL (≈ 0.239 µM); MIC (Edwardsiella tarda): 0.0381 µg/mL (≈ 0.119 µM); MIC (Pseudomonas aeruginosa): 0.0763 µg/mL (≈ 0.239 µM)
Cc1cn(C2C=CC(COC(=O)CN3CCNCC3)O2)c(=O)[nH]c1=O (stereo unspecified)																		> 1000	> 7.20	> 15700	half-life [8]: 0.333 h
